Legend:
Format in all cases: cell-based, human
MCF-10A cells = assay: Antiproliferative activity, sulforhodamine B (SRB) assay, non-malignant cells
Procedure: The antiproliferative activity of the investigated compounds was evaluated using the SRB assay. The cells were seeded in 96-well tissue culture plates at a density of 3 × 10^3 cells/well in 100 μL of the medium. After overnight incubation in a humidified CO2 incubator, the cells were treated with the tested compounds in a final volume of 200 μL/well. After an additional 72 h, cells were washed with PBS and fixed for 1 h at 4 °C with trichloroacetic acid. Then, the cells were stained with 0.4% SRB dye for 30 min. Stained cells were dissolved with Tris (10 mM). The cell viability was evaluated by measurement of the absorbance at 570 nm using an absorbance reader (SPARK TECAN, SCHOELLER). The reading values were converted to the percentage of control (% cell survival). Antiproliferative effects were expressed as IC50 values calculated from curves constructed by plotting cell survival (%) versus drug concentration (μM) (IC50 = concentration of the agent inhibiting cell growth by 50%). Concentrations of compounds present in the medium during the treatment were verified by FAAS or ICP-MS.

MDA-MB-231 cells = assay: Anti-invasion activity, real-time monitoring (xCELLigence RTCA CIM plate); conditions: cells treated with IC50,72h for 24 h before seeding; monitored 7 days; untreated control 21 h
Procedure: The anti-invasive effects of the investigated Ir complexes in real time were assessed by the xCELLigence DP instrument with the migration RTCA CIM plate 16.[48] This system is based on the principle of the Boyden chamber that allows real-time monitoring of the number of invading cells. When cells migrate from the upper to lower wells through the microporous membrane with integrated microelectrodes, they contact and adhere to the microelectrodes affecting the impedance. The output of the experiment performed with this system is the dimensionless cell index (CI); when the cells invade, the CI increases. Moreover, it is possible to analyze the time from cell seeding to the time when invasion through the membrane matrix for each sample treated with tested compounds started (tinv). This period is determined by the intersection of the curve corresponding to the particular time-dependent cell response profile (TCRP) with the straight line corresponding to the threshold value (CI = 0). […] The invasion process was monitored for 7 days to determine whether cell death occurred during the subsequent time after the invasion was observed.
Anti-invasion activity was monitored by the xCELLigence system (Roche). […] Samples were continuously monitored every 5 min for an additional 7 days. […]

B-catenin = assay: RT-qPCR of EMT-related gene transcripts; conditions: MDA-MB-231, 24 h, IC50,72h
Procedure: (§1) MDA-MB-231 cells were seeded on a six-well plate at the density of 0.5 × 10^6 cells per well and incubated overnight. […] Cells were harvested, and total RNA was isolated using NucleoSpin RNA columns (Machery Nagel, GE). One-step qPCR combining reverse transcription followed by amplification thermal cycling was applied using a Luna Universal One-Step RT-qPCR (New England BioLabs, MA, USA). Experiments were performed on an Illumina Eco Real-Time PCR (Illumina, CA, USA). The thermal profile was as follows: reverse transcription for 10 min at 55 °C and initial denaturation for 1 min at 95 °C, followed by 43 thermal cycles of denaturation for 10 s at 95 °C and extension for 30 s at 60 °C. Primer sequences were as follows: Β-actin-F: […]; Β-actin-R: […]; Vim-F: […]; Vim-R: […]; E-Cadherin-F: […]; E-Cadherin-R: […]; N-Cadherin-F: […]; N-Cadherin-R: […]; B-Catenin-F: […]; B-Catenin-R: […]; SNAI1-F: […]; SNAI1-R: […]. Purified primers were from Generi Biotech (Czech Republic). All runs included melting curve analysis and template-free negative technical controls to confirm specific single-product amplification. Β-actin was used as an internal control. The relative expression of mRNA is represented as a fold increase (2^–ΔΔCt).[69]

E-Cadherin = assay: RT-qPCR of EMT-related gene transcripts; conditions: MDA-MB-231, 24 h, IC50,72h
Procedure: as §1

N-Cadherin = assay: RT-qPCR of EMT-related gene transcripts; conditions: MDA-MB-231, 24 h, IC50,72h
Procedure: as §1

SNAI1 = assay: RT-qPCR of EMT-related gene transcripts; conditions: MDA-MB-231, 24 h, IC50,72h
Procedure: as §1

Vimentin = assay: RT-qPCR of EMT-related gene transcripts; conditions: MDA-MB-231, 24 h, IC50,72h
Procedure: as §1

MDA-MB-231 VIM RFP cells [1] = assay: Wound healing assay
Procedure: MDA-MB-231 VIM RFP cells were seeded on 35 mm confocal Petri dishes (Mattek) at the density of 3 × 10^5 cells/dish and incubated overnight or for a further 24–48 h to reach approximately 70% confluency. Defined scratch (220 μm width) was done under continuous suction with the pipette tip. Cells were washed, and the medium was replaced with the culture medium supplemented with tested compounds, applied at the equitoxic concentration (IC50,72h). Samples were incubated for an additional 24 h before fixation with 3.7% formaldehyde (10 min, RT) and mounted with ProLong Diamond Antifade Mountant (LifeSciences, Thermo Fisher Scientific). Samples were visualized with a confocal microscope Leica SP8 SMD operated under the deconvolution lightning mode. Images were analyzed by using ImageJ software. The scratch boundaries were identified with the MRI wound healing tool ImageJ plugin or identified manually.

[2] = test system: spheroids generated from MDA-MB-231 cells; assay: Morphological quantification of 3D tumor spheroids and cell-invasive potential; conditions: for protrusion occurrence (length): control 32 μm
Excerpt: The cancer cell transition from proliferation to invasion is usually initiated by nutrient stress and unfavorable conditions caused by the progressive growth of the primary tumor.[63] To study the dynamics of cells to evade the primary tumor, we monitored the morphology of spheroids generated from MDA-MB-231 cells embedded in an agar matrix.[64] Multicellular tumor spheroids represent the most used 3D in vitro model[65] and offer the opportunity to study the invasive potential of cancer cells under conditions much closer to the in vivo situation than when the traditional Transwell assay is used.[64] Morphological parameters were utilized to evaluate the invasive potential of spheroids generated from MDA-MB-231 cells.[66] Spheroid perimeter is the most useful morphological parameter for quantifying overall proliferation, whereas roundness, shape integrity, and quantification of protrusion occurrence are the morphological parameters related to the invasion potential.[64],[66] At the most compact stage, cells on the surface follow the contour of the spheroid. This morphology resembles the proliferating but not invading character of the spheroid, whereas diffuse and rough borders are the signs of the invasive character of peripheral cells. Assessment of the spheroid circularity (roundness) was analyzed by the automated edge detection and measurement of the enclosed area. A circularity equal to one indicates a perfectly circular spheroid, whereas lower values indicate a loss of circularity. The solidity is an indicator of the regularity of the spheroids’ surface or its roughness and thus can be considered the indicator of the primary protrusions and the overall regularity of the spheroid.[66]
MDA-MB-231 cells were seeded in a sandwich agar matrix (0.5% bottom gel and 0.35% upper cell-containing gel). First, wells of 24-well plates were covered with 0.5% agar gel, and then MDA-MB-231 cells were resuspended in 0.35% agar matrix. The detailed protocol was as follows: Stock solution of agar gel was prepared by autoclaving 1 g of agar in 100 mL of PBS for at least a 20 min liquid cycle. Twenty-four-well plates were covered with 1 mL of 0.5% agar created by mixing 1% agar solution with cultivation media in 1:1 ratio. The dish was then layered with 1 mL of 0.35% agar composed of 0.35 mL of 1% agar and 0.65 mL of cultivation media containing 10^5 MDA-MB-231 cells. After gel solidification, the dish was covered with 2 mL of cultivation media. Mixing of agar solution and media was carried out after the agar solution cooled to approximately 40 °C to prevent damage by high temperature. Cells were cultured for an additional 7 days to establish spheroid structures, then treated with tested compounds at the equitoxic concentration corresponding to IC50,72h, and cultured for an additional 72 h. Samples were photographed on a phase contrast microscope (Olympus CKX41), and images were processed and analyzed for morphology parameters in ImageJ software.

[3] = test system: vimentin in MDA-MB-231 VIM RFP cells; assay: Flow cytometric quantification of vimentin (VIM RFP reporter); conditions: 72 h
Procedure: Quantification of vimentin expression after the treatment of MDA-MB-231 VIM RFP cells with tested compounds was determined with flow cytometry. MDA-MB-231 VIM RFP cells were seeded at the density of 1 × 10^4 cells/well and incubated overnight. […] After 72 h of incubation, cells were trypsinized and analyzed on a flow cytometer Cell Stream (Luminex, USA). The data were processed using Cell Stream analysis software or FCS Express 7 (DeNovo Software, CA). The fluorescence coming from the VIM RFP tag is proportional to the expression of vimentin in treated cells. Each sample analyzed by flow cytometry consisted of at least 30,000 events.

MDA-MB-231 VIM RFP cells [4] = assay: Morphology of the vimentin intermediate filament network by confocal microscopy; conditions: 24 h, IC50,72h
Procedure: MDA-MB-231 VIM RFP cells were seeded on 35 mm confocal Petri dishes (Mattek) at the density of 2.5 × 10^5 cells per dish and incubated overnight. […] Then, samples were washed with PBS, fixed with 3.7% formaldehyde (10 min, RT), and mounted with ProLong Diamond Antifade Mountant with DAPI. Samples were visualized with a confocal microscope Leica SP8 SMD operated under the deconvolution lightning mode.

[5] = β-actin reference, untreated control as calibrator
[6] = one week-old spheroids, 72 h treatment at IC50,72h

COc1cccc2c1C(=O)c1c(O)c3c(c(O)c1C2=O)C[C@@](O)(C(=O)CO)C[C@@H]3O[C@H]1C[C@H](N)[C@H](O)[C@H](C)O1 [Dox, doxorubicin]
IC50 (MCF-10A cells; Homo sapiens, MCF-10A, SRB assay, 72 h incubation, mean ± SD, non-cancerous cells): 8.6 ± 0.8 µM | SI, average selectivity index (MCF-10A cells; IC50 (MCF-10A)/average IC50 (MDA-MB-231 and MCF-7)): ~18 | tinv, period needed to invade through the matrix membrane (MDA-MB-231 cells): approximately 35 h | upregulation of expression of β-catenin (B-catenin): ~3 fold | relative mRNA expression B-catenin (2^–ΔΔCt) (B-catenin; [5]): 2.86 | effect on expression of E-cadherin (E-Cadherin): the expression of E-cadherin slightly decreased | relative mRNA expression E-Cadherin (2^–ΔΔCt) (E-Cadherin; [5]): 0.73 | upregulation of expression of N-cadherin (N-Cadherin): ~3 fold | relative mRNA expression N-Cadherin (2^–ΔΔCt) (N-Cadherin; [5]): 3.39 | upregulation of expression of SNAI1 (SNAI1): ~2 fold | relative mRNA expression SNAI1 (2^–ΔΔCt) (SNAI1; [5]): 1.63 | effect on expression of vimentin (Vimentin): slightly upregulated also the expression of vimentin | relative mRNA expression Vimentin (2^–ΔΔCt) (Vimentin; [5]): 1.21 | wound healing assay observation (MDA-MB-231 VIM RFP cells [1]; 24 h, IC50,72h): induced formation of the pseudopods | wound closure capacity (MDA-MB-231 VIM RFP cells [1]; 24 h after treatment with IC50,72h, untreated control 70%): 67% | mean perimeter of spheroids ([2]; 72 h treatment at IC50,72h, control 2.1 mm): about 2.8 mm | solidity ([2]; one week-old spheroids, 72 h at IC50,72h, control 3.0, Ir1 value affected by collapse of the spheroid structure): 6.3 | secondary protrusions (SP) [2, 6]: secondary protrusions were identified | circularity ([2]; one week-old spheroids, 72 h treatment at IC50,72h, control 0.96): 0.66 | protrusion occurrence (number) ([2]; one week-old spheroids, 72 h treatment at IC50,72h, control 4): 2 | protrusion occurrence (length) [2, 6]: 73 μm | protrusion occurrence (length) ([2]; one week-old spheroids, 72 h treatment at IC50,72h, listed as doxorubicin): up to 73 μm | perimeter ([2]; one week-old spheroids, 72 h treatment at IC50,72h, control 2120 ± 310): 2820 ± 506 μm | RFP fluorescence of VIM RFP reporter ([3]; 2-fold IC50,72h): somewhat suppressed the RFP fluorescence | vimentin expression ([3]; sub-toxic concentrations): considerably increased vimentin expression | morphology of vimentin intermediate filaments (MDA-MB-231 VIM RFP cells [4]): adopted a typical structure
